Data: US10124009B2, “Bromodomain inhibitors” (Tensha Therapeutics, Inc., priority 2014, dated 2018)

What was measured:
[1] = Caco-2 permeability assay; conditions: human; for recovery at 2 h, 10 μM: Caco-2; for Papp A→B at 2 h, 10 μM: Caco-2, Mean Papp, Assay Conc. 10 μM
[2] = biological target: BRD4(1) (Homo sapiens (Human), UniProt O60885); assay: BROMOscan binding assay BRD4(1)
Experimental: (§1) (S)-JQ (S8) was used as a positive control.
(§2) T7 phage strains displaying bromodomains were grown in parallel in 24-well blocks in an E. coli host derived from the BL21 strain. E. coli were grown to log-phase and infected with T7 phage from a frozen stock (multiplicity of infection=0.4) and incubated with shaking at 32° C. until lysis (90-150 minutes). The lysates were centrifuged (5,000×g) and filtered (0.2 μm) to remove cell debris. […] The liganded beads were blocked with excess biotin and washed with blocking buffer (SeaBlock (Pierce), 1% BSA, 0.05% Tween 20, 1 mM DTT) to remove unbound ligand and to reduce non-specific phage binding.
(§3) Test compounds were prepared as 1000× stocks in 100% DMSO and subsequently serially diluted 1:10 in monoethylene glycol (MEG) to create stocks at 100× the screening concentration (resulting stock solution is 10% DMSO/90% MEG). The compounds were then diluted directly into the assays such that the final concentration of DMSO and MEG were 0.1% and 0.9%, respectively. All reactions were performed in polystyrene 96-well plates in a final volume of 0.135 ml. […] The bromodomain concentration in the eluates was measured by qPCR.
(§4) Most Kds were determined using a compound top concentration=10,000 nM.
(§5) Binding constants (Kds) were calculated with a standard dose-response curve using the Hill equation. The Hill Slope was set to −1. Curves were fitted using a non-linear least square fit with the Levenberg-Marquardt algorithm. […] The amount of bromodomain was measured by qPCR (y-axis) and was plotted against the corresponding compound concentration in nM in log 10 scale.

[3] = IV and oral pharmacokinetics in male Sprague-Dawley rats; assay type: in vivo, rat; conditions: for exposures following IV administration: IV 1 mg/kg; for Extrapolated / AUC(0-inf) / AUC(0-t) / Cmax / Tmax / half-life: rat plasma; for bioavailability / AUC(0-inf) / AUC(0-t) / Cmax / Tmax / half-life: male, Sprague-Dawley; for bioavailability: rat, plasma, PO 5 mg/kg, read-out: oral bioavailability F
Experimental: Male Sprague-Dawley (˜250-325 g) with indwelling jugular vein cannulae (JVC) were purchased and allowed to acclimate to the test facility for a minimum of 2 days. All animals were fasted overnight prior to dosing. Oral formulations were prepared by weighing the appropriate amount of the compound into formulation vial and adding the appropriate volume of DMSO (10%), Solutol HS-15 (10%), and saline (80%) (See Table 0 for compound amounts and concentrations of all formulations). Once the test compound was in the vial, DMSO was added and the vial was vortexed for 1-2 minutes and sonicated for 3 minutes. The appropriate volume of Solutol HS-15 was then added to formulation vial and the vial was vortexed for 1-2 minutes and sonicated for 2 minutes. Saline was added and the pH adjusted to about 6.8-7.4, and the vial was vortexed for 2 minutes.
Oral dosing was performed using a ball-tipped gavage needle. […] No abnormalities were observed during the course of the study. Serial samples were collected by via tail snip, or facial vein. Blood samples were collected into NaF Na2EDTA tubes and stored on wet ice until processed to plasma by centrifugation (3500 rpm for 10 minutes at 5° C.) within 30 minutes of collection. Plasma samples were transferred into matrix tubes and stored at −80° C. until transferred to analytical chemistry for analysis. The cellular fraction was discarded. Dose formulation and plasma samples were analyzed for parent drug and metabolite by Agilux Laboratories via LC/MS/MS using an RGA I assay.

[4] = biological target: BRD4(2) (Homo sapiens (Human), UniProt O60885); assay: BROMOscan binding assay BRD4(2)
Experimental: as §1, §2, §3, §4, §5

[5] = system: Caco-2; assay: Caco-2 permeability assay; conditions: Assay Conc. 10 μM
[6] = system: RIN-m5F; assay: Cell Titer-Glo rat insulinoma cell assay, RIN-m5F; assay type: cell-based; conditions: cell proliferation, 168-192 h culture
Experimental: (§6) A Cell Titer-Glo assay was utilized to test the sensitivity of four rat insulinoma (RIN) cell lines, RIN-14B, RIN-m5F, RIN-m, and RIN-5, to Compound 1 and Compound 2.
(§7) Cells were seeded at 5000 cells per well in a 96-well microculture plate in a total volume of 100 μl/well and incubated for 24 hours. 100 μl of 2× testing compounds (Compound 1 or Compound 2), serially diluted 1:4 were added to each well. The concentrations tested for Compound 1 and Compound 2 were 20 μM, 5 μM, 1.25 μM, 0.313 μM, 0.0781 μM, 0.0195 μM, 0.00488 μM, 0.00122 μM, 0.000305 μM, and 0.0000763 μM. After 168-192 total hours of culture 100 μl of media was removed from each well and 50 μl of Cell Titer-Glo (Promega #G7571) was added to each well. The plate was shaken for 2 minutes and allowed to equilibrate for 10 minutes. Luminescence was measured on a Tecan GENios microplate reader. Percent inhibition of cell proliferation was calculated relative to untreated control wells. All tests were performed in triplicate or quadruplicates at each concentration level. IC50 values were calculated using Prism 6.00 curve-fitting with a four parameter-logistic equation.

[7] = system: RIN-m; assay: Cell Titer-Glo rat insulinoma cell assay, RIN-m; assay type: cell-based; conditions: cell proliferation, 168-192 h culture
Experimental: as §6, §7

[8] = system: RIN-5F; assay: Cell Titer-Glo rat insulinoma cell assay, RIN-5F; assay type: cell-based; conditions: cell proliferation, 168-192 h culture
Experimental: as §6, §7

[9] = system: RIN-14B; assay: Cell Titer-Glo rat insulinoma cell assay, RIN-14B; assay type: cell-based; conditions: cell proliferation, 168-192 h culture
Experimental: as §6, §7

[10] = system: rat insulinoma (RIN) cell lines; assay: Cell Titer-Glo rat insulinoma cell assay, all four cell lines; assay type: cell-based; conditions: all cell lines (RIN-14B, RIN-m5F, RIN-m, RIN-5)
Experimental: as §6, §7

[11] = in vitro; conditions: human
[12] = PO Dose (5 mg/kg) vs IV (1 mg/kg)

Structure (SMILES)	recovery at 2 h, 10 μM [1] [%]	Papp A→B at 2 h, 10 μM [1] [×10⁻⁶ cm/s]	Kd [2] [nM]	Kd values / in vitro binding activity to BRD4(1), in words [2]	exposures following IV administration [3]	Extrapolated ([3]; IV Dose (1 mg/kg)) [%]	bioavailability [3] [%]	AUC(0-inf) ([3]; IV Dose (1 mg/kg)) [ng·h/mL]	AUC(0-t) ([3]; IV Dose (1 mg/kg)) [ng·h/mL]	Cmax ([3]; IV Dose (1 mg/kg)) [ng/mL]	Tmax ([3]; IV Dose (1 mg/kg)) [min]	half-life ([3]; IV Dose (1 mg/kg)) [min]	AUC(0-t) ([3]; PO Dose (5 mg/kg)) [ng·h/mL]	Cmax ([3]; PO Dose (5 mg/kg)) [ng/mL]	Tmax ([3]; PO Dose (5 mg/kg)) [min]	Kd [4] [nM]	Kd values / in vitro binding activity to BRD4(2), in words [4]	further results
Cc1sc2c(c1C)C(c1ccc(Cl)cc1)=N[C@@H](CC(=O)OCCCO)c1nnc(C)n1-2 [Compound 4]	99.4	35.6	1.1	low Kd values	detected	0.28	> 23	784	782	1130	4.98	48.4	813	480	30	1.3	low Kd values	F [3, 12]: 23.4%; AUC(0-inf) ([3]; PO Dose (5 mg/kg)): 918 ng·h/mL; half-life ([3]; PO Dose (5 mg/kg)): 110 min
Cc1sc2c(c1C)C(c1ccc(Cl)cc1)=N[C@@H](CC(=O)OCCO)c1nnc(C)n1-2 [Compound 3]	88.7	29.8	1.1	low Kd values	–	–	–	–	–	–	–	–	–	–	–	1.2	low Kd values	–
Cc1sc2c(c1C)C(c1ccc(Cl)cc1)=N[C@@H](CC(=O)OC/C(Br)=C(\Br)CO)c1nnc(C)n1-2 [Compound 7]	76.9	31.3	1.5	low Kd values	–	–	–	–	–	–	–	–	–	–	–	2.1	low Kd values	–
Cc1sc2c(c1C)C(c1ccc(Cl)cc1)=N[C@@H](CC(=O)OCCCCCCO)c1nnc(C)n1-2 [Compound 5]	88.7	39.9	–	low Kd values	detected	0.75	–	516	512	1070	4.98	18.1	12.1	12.2	30	0.4	low Kd values	–
Cc1sc2c(c1C)C(c1ccc(Cl)cc1)=N[C@@H](CC(=O)OC(C)(C)C)c1nnc(C)n1-2 [(S)-JQ1, reference compound]	84.6	35.4	–	–	–	–	–	–	–	–	–	–	–	–	–	–	–	–
CNC(=C[N+](=O)[O-])NCCSCc1ccc(CN(C)C)o1 [Ranitidine, reference compound]	–	–	–	–	–	–	–	–	–	–	–	–	–	–	–	–	–	Mean % recovery [5]: 97.8%; Mean Papp, A-B ([5]; 2 hours): 0.170 10^−6 cm/s
Cc1sc2c(c1C)C(c1ccc(Cl)cc1)=N[C@@H](CC(=O)OC1CCC(O)CC1)c1nnc(C)n1-2 (stereo partly shown) [Compound 1]	98.5	30.7	1.3	low Kd values	detected	0.41	> 23	1500	1500	1490	4.98	47.9	2360	619	60	1.5	low Kd values	IC50 [6]: 11.3 nM; IC50 [7]: 12.6 nM; IC50 ([8]; Rattus norvegicus): 21.6 nM; IC50 [8]: 19.5 nM; IC50 [9]: 9.3 nM; IC50 [10]: < 40 nM; F* ([3]; PO Dose (5 mg/kg) vs IV (1 mg/kg), AUC0-last was used to calculate % F): 31.6%
Cc1sc2c(c1C)C(c1ccc(Cl)cc1)=N[C@@H](CC(=O)OCC(C)O)c1nnc(C)n1-2 (stereo partly shown) [Compound 2]	95.3	30.6	1.9	low Kd values	detected	4.62	> 23	–	–	790	4.98	27.4	2720	820	60	1.9	low Kd values	IC50 [6]: 42.3 nM; IC50 [7]: 41.5 nM; IC50 ([8]; Rattus norvegicus): 64.5 nM; IC50 [8]: 59.9 nM; IC50 [9]: 26.5 nM; IC50 [10]: < 80 nM; F [3, 12]: 102.2%; AUC(0-inf) ([3]; PO Dose (5 mg/kg)): 3030 ng·h/mL; half-life ([3]; PO Dose (5 mg/kg)): 107 min
Cc1sc2c(c1C)C(c1ccc(Cl)cc1)=N[C@@H](CC(=O)OCC(O)CO)c1nnc(C)n1-2 (stereo partly shown) [Compound 6]	90.8	4.74	–	–	–	–	–	–	–	–	–	–	–	–	–	–	–	–
CC(=O)CC(c1ccccc1)c1c(O)c2ccccc2oc1=O (stereo not shown) [Warfarin]	–	–	–	–	–	–	–	–	–	–	–	–	–	–	–	–	–	recovery at 2 h, 10 μM ([11]; Caco-2): 99.9%; Papp A→B at 2 h, 10 μM ([11]; Caco-2, Mean Papp, A-B): 38.8 ×10⁻⁶ cm/s
